The term MIC denotes the smallest concentration in the dilution series that meets the test's criterion for growth inhibition.

Converted amounts (≈) assume the structure as drawn. The source made the active and inactive calls.

From ChEMBL document CHEMBL1687812, “Interplay between drug efflux and antioxidants in Escherichia coli resistance to antibiotics” (2010) come the findings set out here.

The test system of assay [1] is Escherichia coli. Briefly: Antibacterial activity against kanamycin-resistant acrAB, acrEF deficient Escherichia coli W4680AE presence of 15 mM of glutathione. In kind it is functional.
Assay [2] relates to Escherichia coli. Description: Antibacterial activity against speE deficient Escherichia coli JW0117-1. In kind it is functional.
For assay [3], the system named is Escherichia coli. Briefly: Antibacterial activity against kanamycin-resistant acrAB, acrEF deficient Escherichia coli W4680AE presence of 5 mM of glutathione. In kind it is functional.
The test system of assay [4] is Escherichia coli. Description: Antibacterial activity against wild type Escherichia coli BW25113 presence of 15 mM of glutathione. In kind it is functional.
In assay [5] the test system is Escherichia coli. Briefly: Antibacterial activity against wild type Escherichia coli BW25113 presence of 5 mM of glutathione. In kind it is functional.
Assay [6] deals with Escherichia coli. Description: Antibacterial activity against tolC deficient Escherichia coli GD100 presence of 5 mM of glutathione. In kind it is functional.
For assay [7], the system named is Escherichia coli. Description: Antibacterial activity against kanamycin-resistant acrAB, acrEF deficient Escherichia coli W4680AE presence of 10 mM of glutathione. In kind it is functional.
In assay [8] the test system is Escherichia coli. Briefly: Antibacterial activity against ygiBC, yjfMC, gspS deficient Escherichia coli GD108. In kind it is functional.
Assay [9] relates to Escherichia coli. Description: Antibacterial activity against wild type Escherichia coli BW25113 presence of 10 mM of glutathione. In kind it is functional.
For assay [10], the system named is Escherichia coli. Description: Antibacterial activity against tolC deficient Escherichia coli GD100 absence of glutathione. In kind it is functional.
Assay [11] deals with Escherichia coli. Briefly: Antibacterial activity against tolC, gshB deficient Escherichia coli GD107. In kind it is functional.
In assay [12] the test system is Escherichia coli. Description: Antibacterial activity against tolC deficient Escherichia coli GD100. In kind it is functional.
Assay [13] concerns Escherichia coli. Description: Antibacterial activity against tolC deficient Escherichia coli GD100 presence of 10 mM of glutathione. In kind it is functional.
Assay [14] deals with Escherichia coli. Briefly: Antibacterial activity against gspS deficient Escherichia coli JW2956-1. In kind it is functional.
Assay [15] deals with Escherichia coli. Briefly: Antibacterial activity against gshB deficient Escherichia coli JW2914-1. In kind it is functional.
Assay [16] has as its system Escherichia coli. Description: Antibacterial activity against tolC deficient Escherichia coli GD100 presence of 15 mM of glutathione. In kind it is functional, organism-based.
The subject of assay [17] is Escherichia coli. Description: Antibacterial activity against kanamycin-resistant acrAB, acrEF deficient Escherichia coli W4680AE absence of glutathione. In kind it is functional.
Assay [18] deals with Escherichia coli. Description: Antibacterial activity against wild type Escherichia coli BW25113 absence of glutathione. In kind it is functional.
The subject of assay [19] is Escherichia coli. Briefly: Antibacterial activity against tolC, speE deficient Escherichia coli GD106. In kind it is functional.
For assay [20], the system named is Escherichia coli. Briefly: Antibacterial activity against wild type Escherichia coli BW25113. In kind it is functional.

For `CC[C@H]1OC(=O)[C@H](C)[C@@H](O[C@H]2C[C@@](C)(OC)[C@@H](O)[C@H](C)O2)[C@H](C)[C@@H](O[C@@H]2O[C@H](C)C[C@H](N(C)C)[C@H]2O)[C@](C)(O)C[C@@H](C)C(=O)[C@H](C)[C@@H](O)[C@]1(C)O` [ERYTHROMYCIN], the MIC is 32 µg/mL in assay [1]; 32 µg/mL (≈ 43.6 µM) in assay [2]; 4 µg/mL in assay [3]; 512 µg/mL in [4]; 512 µg/mL in assay [5]; 4 µg/mL in assay [6]. The MIC in assay [7] was found to be 8 µg/mL; in [8] it was 64 µg/mL (≈ 87.2 µM); in [9], 512 µg/mL; in assay [10], 4 µg/mL (≈ 5.45 µM); in assay [11], 1 µg/mL (≈ 1.36 µM); in assay [12], 1 µg/mL (≈ 1.36 µM). Further, the MIC in assay [13] worked out at 4 µg/mL; in assay [14] it was 64 µg/mL (≈ 87.2 µM); in assay [15] it was 64 µg/mL (≈ 87.2 µM); in [17], 4 µg/mL (≈ 5.45 µM); in assay [18], 128 µg/mL (≈ 174 µM); in [19], 1 µg/mL (≈ 1.36 µM). The lowest concentration to inhibit growth in assay [20] (MIC) was 32 µg/mL (≈ 43.6 µM). Besides, the MIC entry in assay [16] was “Active”.

Take `CCn1cc(C(=O)O)c(=O)c2cc(F)c(N3CCNCC3)cc21` [NORFLOXACIN]: the MIC in [1] was found to be 0.16 µg/mL; in [2], 0.02 µg/mL (≈ 0.0626 µM); in assay [3], 0.01 µg/mL; in [4] it was 1.28 µg/mL; in [5] it was 0.16 µg/mL; in [6], 0.02 µg/mL. Further, the MIC in [7] turned out to be 0.02 µg/mL; in assay [8] it was 0.01 µg/mL (≈ 0.0313 µM); in [9] it was 0.64 µg/mL; in [10], 0.01 µg/mL (≈ 0.0313 µM); in assay [11] it was 0.0025 µg/mL (≈ 0.00783 µM); in assay [12], 0.01 µg/mL (≈ 0.0313 µM). Further, the MIC in assay [13] turned out to be 0.08 µg/mL; in assay [14], 0.02 µg/mL (≈ 0.0626 µM); in [15], 0.04 µg/mL (≈ 0.125 µM); in [17], 0.005 µg/mL (≈ 0.0157 µM); in assay [18] it was 0.04 µg/mL (≈ 0.125 µM); in [19], 0.005 µg/mL (≈ 0.0157 µM). Further, in assay [20], the MIC amounted to 0.04 µg/mL (≈ 0.125 µM). Also, the MIC result in assay [16] was “Active”.

On to `CC1(C)S[C@@H]2[C@H](NC(=O)[C@H](N)c3ccccc3)C(=O)N2[C@H]1C(=O)O` [AMPICILLIN], for which the MIC in assay [2] worked out at 5 µg/mL (≈ 14.3 µM); in [8], 5 µg/mL (≈ 14.3 µM); in assay [11], 5 µg/mL (≈ 14.3 µM); in [12], 5 µg/mL (≈ 14.3 µM); in assay [14], 10 µg/mL (≈ 28.6 µM); in assay [15] it was 10 µg/mL (≈ 28.6 µM). For the same compound, the MIC in [19] and in assay [20] was 5 µg/mL (≈ 14.3 µM) in each case.

Regarding `CO[C@@H]1[C@@H](OC(N)=O)[C@@H](O)[C@H](Oc2ccc3c(O)c(NC(=O)c4ccc(O)c(CC=C(C)C)c4)c(=O)oc3c2C)OC1(C)C` [NOVOBIOCIN], the MIC in [2] amounted to 64 µg/mL (≈ 104 µM); in assay [8], 32 µg/mL (≈ 52.2 µM); in assay [11], 1 µg/mL (≈ 1.63 µM); in assay [12], 1 µg/mL (≈ 1.63 µM); in assay [14] it was 64 µg/mL (≈ 104 µM); in [15], 256 µg/mL (≈ 418 µM). In addition, the MIC in assay [19] turned out to be 1 µg/mL (≈ 1.63 µM); in assay [20], 32 µg/mL (≈ 52.2 µM).

With `CN[C@@H]1[C@H](O)[C@H](NC)[C@H]2O[C@@]3(O)C(=O)C[C@@H](C)O[C@H]3O[C@@H]2[C@H]1O` [SPECTINOMYCIN], the minimal inhibitory concentration (MIC) in assay [2] is 25 µg/mL (≈ 75.2 µM); in assay [8], 25 µg/mL (≈ 75.2 µM); in [11], 12.5 µg/mL (≈ 37.6 µM); in [12], 12.5 µg/mL (≈ 37.6 µM); in assay [14] it was 25 µg/mL (≈ 75.2 µM); in assay [15] it was 25 µg/mL (≈ 75.2 µM). The MIC in assay [19] and in assay [20] was 25 µg/mL (≈ 75.2 µM) each time.

Take `NCC[C@H](O)C(=O)N[C@@H]1C[C@H](N)[C@@H](O[C@H]2O[C@H](CN)[C@@H](O)[C@H](O)[C@H]2O)[C@H](O)[C@H]1O[C@H]1O[C@H](CO)[C@@H](O)[C@H](N)[C@H]1O` [AMIKACIN]: the MIC turned out to be 16 µg/mL (≈ 27.3 µM) in [2]; 1 µg/mL (≈ 1.71 µM) in assay [8]; 2 µg/mL (≈ 3.42 µM) in [11]; 1 µg/mL (≈ 1.71 µM) in assay [12]; 2 µg/mL (≈ 3.42 µM) in [14]; 4 µg/mL (≈ 6.83 µM) in assay [15]. Moreover, the MIC in assay [19] was 8 µg/mL (≈ 13.7 µM); in [20] it was 1 µg/mL (≈ 1.71 µM).

Take `NC[C@H]1O[C@H](O[C@H]2[C@H](O)[C@@H](O[C@H]3O[C@H](CO)[C@@H](O)[C@H](N)[C@H]3O)[C@H](N)C[C@@H]2N)[C@H](O)[C@@H](O)[C@@H]1O` [KANAMYCIN]: the MIC in assay [2] came out at 12.5 µg/mL (≈ 25.8 µM); in assay [4], 50 µg/mL; in assay [5] it was 25 µg/mL; in [6] it was 25 µg/mL; in assay [8] it was 1.56 µg/mL (≈ 3.22 µM); in assay [9] it was 50 µg/mL. Also, the MIC in [10] turned out to be 1.56 µg/mL (≈ 3.22 µM); in [11], 3.12 µg/mL (≈ 6.45 µM); in [12], 0.78 µg/mL (≈ 1.61 µM); in assay [13], 50 µg/mL; in assay [14], 1.56 µg/mL (≈ 3.22 µM); in assay [15] it was 6.25 µg/mL (≈ 12.9 µM). Also, the MIC was determined as 1.56 µg/mL (≈ 3.22 µM) in assay [18], 6.25 µg/mL (≈ 12.9 µM) in assay [19] and 0.78 µg/mL (≈ 1.61 µM) in [20]. In assay [16], the MIC entry was “Active”.
